According to patent publication EP3566700A1, “AMBROXOL FOR DNA DAMAGE REPAIR DISEASE THERAPIES” (Universitat Autònoma de Barcelona, priority 2018, dated 2019):

Assays:
Fanca-deficient mice [1] = assay: Telomere fluorescence analysis on spleen tissue sections by Q-FISH; format: in vivo; details: for telomere length: compared with control treatment (water)
Experimental: (§1) Fanca-deficient mice strain was Fanca^tm1Faw and genetic background 129P2/OlaHsd * FVB with exon deletion 4-7 (c.f. Cheng NC et al., "Mice with a targeted disruption of the Fanconi anemia homolog Fanca", Hum Mol Genet. 2000, vol. 9(12), pp. 1805-11). 30 male mice were randomized by age (12 to 16 weeks) and weight (25 grams on average) in three experimental groups (water, NAC and AMB).
(§2) NAC (40mM) (used for comparative purposes) and Ambroxol (1mM) were administered in drinking water (filtered and UV irradiated) ad libitum. To monitor MN on blood cells (erythrocytes and reticulocytes) mice were tail bleeded on weeks 1, 2, 4, 6, 8, 12, 16 and 24. Hematological parameters and blood counts were also evaluated. At the end of the study mice were euthanized and bone marrow, blood and organ samples (spleen, lung, and liver) collected.
Quantitative telomere fluorescence in situ hybridization (Q-FISH) was performed directly on spleen tissue sections as previously described (c.f. Flores I et al., "The longest telomeres: a general signature of adult stem cell compartments", Genes Dev. 2008; vol. 22(5), pp. 654-67). Spleen tissue was hybridized with the PNA telomeric oligonucleotide (CCCTTA)3 labeled with Cy3 (PE Biosystems). After that, digital images were acquired.
Confocal microscopy was performed at room temperature with a laser-scanning microscope (TSC SP5) using a Plan Apo 63Å-1.40 NA oil immersion objective (HCX). Maximal projection of z-stack images generated using advanced fluorescence software (LAS) was analyzed with Definiens XD software package. DAPI images were used to detect telomeric signals inside each nucleus. To study telomere length, average intensity of individual telomeres of around 940 nuclei per mouse was analyzed. To study short telomeres, intensity of around 31,000 individual telomeres was studied per mouse. A total of 7 mice were studied in the control group and 10 mice in NAC or Ambroxol groups.

[2] = tested on: FANCA-deficient lymphoblastoid cell lines; assay: FCM assay: cell cycle analysis (cells in G2/M phase); format: cell-based, human; details: three FANCA-deficient cell lines; basal around 20% without treatment
FANCD2 ubiquitination = FANCD2 ubiquitination by Western blotting; format: cell-based, human; details: two FANCA-deficient lymphoblastoid cell lines
Experimental: To disregard a direct effect on FA/BRCA pathway, FANCD2 ubiquitination was analyzed by Western blotting in two different FANCA-deficient lymphoblastoid cell lines.

Fanca-deficient mice [3] = assay: Chronic treatment of Fanca-deficient mice: survival and general health; format: in vivo
Experimental: as §1, §2

Fanca-deficient mice [4] = assay: Histopathology study of spleen, liver and lung; format: in vivo
Experimental: as §1, §2
A total of 7 mice were studied in the placebo (water) group and 10 mice in the NAC or Ambroxol treated groups. Samples (spleen, liver and lung) were fixed overnight in 10 % neutral buffered formalin, embedded in paraffin, sectioned in 3 µm thick and dried. Slides were dewaxed and re-hydrated through a series of graded ethanol until water and finally stained with hematoxilin-eosin (H-E). Photographs were taken using an Olympus DP73 digital camera and a Vanox AHBS3 Olympus microscope.

[5] = affected mice/mice studied, H2O 0/7
[6] = affected mice/mice studied, H2O 1/7
[7] = affected mice/mice studied, H2O 2/7

SMILES: CC(=O)N[C@@H](CS)C(=O)O [NAC, N-acetylcysteine]
- telomere length (Fanca-deficient mice [1]; one year of treatment): modest improvement

SMILES: Nc1c(Br)cc(Br)cc1CN[C@H]1CC[C@H](O)CC1 [Ambroxol, trans-4-(2-amino-3,5-dibromobenzylamino)cyclohexanol]
- percentage of cells in G2/M phase in basal conditions [2]: lowered this percentage
- FANCD2 ubiquitination (FANCD2 ubiquitination): unable to restore FANCD2 ubiquitination
- survival at the end of the experiment (Fanca-deficient mice [3]; 1 year, Ambroxol 1mM in drinking water ad libitum, 40 % of control mice alive): All mice from the Ambroxol group were alive and healthy
- general health condition and survival (Fanca-deficient mice [3]; related to untreated mice): improvement
- Liver, Light/moderate: Steatosis (Fanca-deficient mice [4]; [5]): 2/10
- Lung, Light/moderate: Pleuritis (Fanca-deficient mice [4]; [5]): 1/10
- Liver, Light/moderate: Vascular congestion (Fanca-deficient mice [4]; [6]): 1/10
- Liver, Severe: Multiple myeloid precursor infiltration (Fanca-deficient mice [4]; [6]): 0/10
- Lung, Light/moderate: BALT activation (Fanca-deficient mice [4]; [6]): 1/10
- Lung, Light/moderate: Fibrosis (Fanca-deficient mice [4]; [6]): 0/10
- Lung, Light/moderate: Interstitial pneumonia (Fanca-deficient mice [4]; [6]): 5/10
- Lung, Severe: General vascular congestion (Fanca-deficient mice [4]; [6]): 0/10
- Lung, Severe: Myeloid-shape cellullar embolism (Fanca-deficient mice [4]; [6]): 0/10
- Lung, Severe: Osseous metaplasia (Fanca-deficient mice [4]; [6]): 0/10
- Spleen, Light/moderate: Lymphoid hyperplasia (Fanca-deficient mice [4]; [6]): 3/10
- Liver, Severe: Vesicular steatosis (Fanca-deficient mice [4]; [7]): 0/10
- Spleen, Severe: Spleen hyperplasia (likely linfoma) (Fanca-deficient mice [4]; [7]): 0/10
- Liver, Light/moderate: Chronic hepatitis (perivascular) (Fanca-deficient mice [4]; affected mice/mice studied, H2O 3/7): 7/10
- severe organ defects (Fanca-deficient mice [4]; end of experiment (1 year)): no severe organ defects
- improvement in telomere's length with respect to NAC (Fanca-deficient mice [1]; one year of treatment): about 5 fold
- telomere length (Fanca-deficient mice [1]; one year of treatment): significant increase
- length of short telomeres (Fanca-deficient mice [1]; untreated versus Ambroxol treated mice): significantly shorter in untreated mice
- proportion of short telomeres respect the total number of telomeres (Fanca-deficient mice [1]; untreated versus treated mice): significantly bigger in untreated mice
